Data published in patent US8129355B2, “Ketone ligands for modulating the expression of exogenous genes via an ecdysone receptor complex” (priority 2002, dated 2012).

What was measured:
[1] = molecular target: T1, GAL4 DBD (1-147)-CfEcR(DEF)/VP16AD-βRXREF-LmUSPEF (Choristoneura fumiferana, UniProt O77240); test: 27-63 assay: luciferase reporter gene expression in stable CHO cell clone 27-63; details: for Fold Induction Average, 27-63 Assay (33 μM): single dose 33 μM, RLU ligand treated / RLU DMSO treated cells; for 27-63 Rel Max FI: maximum fold induction at any concentration relative to that of GS-E ligand; for CC50: read-out: 27-63 LC50, average, dose response, three-parameter logistic model; for fold induction at 33 µM: CHO, read-out: Fold Induction Average, 27-63 Assay (33 μM)
T1 sequence (O77240 191-513): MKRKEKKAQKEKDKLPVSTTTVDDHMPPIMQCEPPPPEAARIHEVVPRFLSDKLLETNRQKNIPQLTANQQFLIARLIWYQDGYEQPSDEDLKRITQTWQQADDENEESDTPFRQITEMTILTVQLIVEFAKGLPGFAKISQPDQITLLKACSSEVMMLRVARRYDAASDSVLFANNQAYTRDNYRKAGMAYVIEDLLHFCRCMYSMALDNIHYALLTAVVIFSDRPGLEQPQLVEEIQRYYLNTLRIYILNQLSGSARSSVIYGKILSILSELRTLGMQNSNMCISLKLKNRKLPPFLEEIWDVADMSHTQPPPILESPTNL
T1 sequence (P28702 296-455 partner limits assumed): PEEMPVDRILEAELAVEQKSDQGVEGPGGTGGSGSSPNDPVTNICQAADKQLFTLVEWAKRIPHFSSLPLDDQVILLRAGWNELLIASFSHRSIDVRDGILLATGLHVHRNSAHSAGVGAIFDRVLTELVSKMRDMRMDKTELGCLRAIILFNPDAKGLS
How it was run: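 CHO clone stably expressing GAL4 DBD-CfEcR(DEF) and VP16AD-HsRXRβ/LmUSP EF chimera plus a 5XGAL4RE-luciferase reporter; ligands given at 8 concentrations (33 μM to 0.01 μM), luminescence read 48 h after treatment. Fold induction versus DMSO cells; BC50 from three-parameter logistic fit.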

[2] = molecular target: T2, Gal4 DBD/AaEcR (DEF) with VP16-βRXR-E (Aedes aegypti, UniProt P49880); test: cell-based; type: cell-based; details: for Fold Induction Average, AA_3T3 Assay (33 μM): single dose 33 μM, RLU ligand treated / RLU DMSO treated cells; for LC50 (half-maximal ligand concentration for reporter induction): average, dose response 33 μM to 0.01 μM, three-parameter logistic model, read-out: AA_3T3 LC50; for AA_3T3 Rel Max FI: maximum fold induction at any concentration relative to that of GS-E ligand
T2 construct: The wildtype D, E, and F domains from mosquito Aedes aegypti EcR (“AaEcR-DEF”); expressed in transfected cells; host or cells: 3T3 cells, transient transfection (Superfect)
T2 sequence (P28704 286-520 A311G/G315S/G445S/I449V): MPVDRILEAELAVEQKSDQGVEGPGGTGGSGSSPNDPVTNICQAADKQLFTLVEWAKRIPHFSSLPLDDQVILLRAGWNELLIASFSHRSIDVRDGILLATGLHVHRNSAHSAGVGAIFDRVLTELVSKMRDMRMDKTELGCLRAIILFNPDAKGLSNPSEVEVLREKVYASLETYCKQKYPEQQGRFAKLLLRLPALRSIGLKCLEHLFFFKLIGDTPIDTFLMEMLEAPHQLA
T2 sequence (P49880 405-776): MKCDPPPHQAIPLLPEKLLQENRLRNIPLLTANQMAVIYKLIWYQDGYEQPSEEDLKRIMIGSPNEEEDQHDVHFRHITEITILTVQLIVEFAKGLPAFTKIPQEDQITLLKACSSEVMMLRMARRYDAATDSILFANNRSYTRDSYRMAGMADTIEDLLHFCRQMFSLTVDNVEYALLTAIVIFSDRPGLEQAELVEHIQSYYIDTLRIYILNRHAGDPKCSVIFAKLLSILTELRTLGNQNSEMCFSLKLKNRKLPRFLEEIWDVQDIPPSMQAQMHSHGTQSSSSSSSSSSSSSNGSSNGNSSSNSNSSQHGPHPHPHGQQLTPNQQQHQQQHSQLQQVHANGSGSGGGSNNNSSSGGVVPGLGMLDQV
Protocol: 3T3 cells were trypsinized and plated at 2.5×10^3 cells/well on a 96-well plate. After incubation for 24 h at 37° C. under 5% CO2, cells were transfected with the Gal4 DBD/AaEcR (DEF) gene expression cassette and the reporter plasmid, pFRLuc, containing a 5XGAL4 response element and the firefly luciferase gene in serum free media using Superfect (Qiagen). After transfection for 4 h at 37° C., the cells were treated with ligand in serum media. […] Single dose testing was performed at 33 μM.

SMILES | 27-63 Rel Max FI [1] | CC50 [1] [µM] | other results
CCOC(=O)C(=O)N1CCCC(NC(=O)c2cccc(OC)c2C)(C(=O)c2cc(C)cc(C)c2)C1 (racemic) [Example 154] |  |  | Fold Induction Average, 27-63 Assay (33 μM) [1]: 2; Fold Induction Average, AA_3T3 Assay (33 μM) [2]: 2
COc1cccc(C(=O)NC(C)(C(=O)c2ccc(C)cc2)C(C)C)c1C (centres unmarked) [Example 33] | 0.00 | > 33 | 
COc1cccc(C(=O)NC(C)(C(=O)c2ccccc2)C(C)C)c1C (centres unmarked) [Example 34] | 0.00 | > 33 | 
CCC(CC)(NC(=O)c1cccc(OC)c1C)C(=O)c1ccccc1OC [Example 37] | 0.81 | ~18 | 
CCC(CC)(NC(=O)c1cccc(OC)c1C)C(=O)c1ccc(F)cc1 [Example 38] | 0.00 | > 33 | 
COc1ccccc1C(=O)C1(NC(=O)c2cccc(OC)c2C)CCCC1 [Example 40] | 0.67 | 6.61 | 
COc1cccc(C(=O)NC2(C(=O)c3ccc(F)cc3)CCCC2)c1C [Example 42] | 0.01 | > 33 | 
COc1cccc(C(=O)NC2(C(=O)c3ccccc3C)CCCCC2)c1C [Example 44] | 0.07 | > 33 | 
COc1ccccc1C(=O)C1(NC(=O)c2cccc(OC)c2C)CCCCC1 [Example 45] | 0.71 | 1.03 | 
COc1ccc(C(=O)C2(NC(=O)c3cccc(OC)c3C)CCCCC2)cc1 [Example 46] | 0.00 | > 33 | fold induction at 33 µM [1]: 5
CCC(CC)(NC(=O)c1cccc(OC)c1C)C(=O)c1cccc(C)c1 [Example 48] | 0.11 | > 33 | 
CCC(CC)(NC(=O)c1cccc(OC)c1C)C(=O)c1cccc(OC)c1 [Example 49] | 0.00 | > 33 | 
CCC(CC)(NC(=O)c1cccc(OC)c1C)C(=O)c1ccc(F)c(C)c1 [Example 50] | 0.00 | > 33 | 
CCC(CC)(NC(=O)c1cccc(OC)c1C)C(=O)c1cc(C)cc(C)c1 [Example 51] | 0.54 | 6.23 | 
COc1cccc(C(=O)NC(C)(CC(C)C)C(=O)c2cccc(C)c2)c1C (centres unmarked) [Example 52] | 0.04 | ~12 | 
COc1cccc(C(=O)C(C)(CC(C)C)NC(=O)c2cccc(OC)c2C)c1 (centres unmarked) [Example 53] | 0.00 | > 33 | 
COc1cccc(C(=O)NC(C)(CC(C)C)C(=O)c2cc(C)cc(C)c2)c1C (centres unmarked) [Example 55] | 0.62 | 3.85 | 
COc1cccc(C(=O)NC2(C(=O)c3ccc(F)cc3)CCCCC2)c1C [Example 60] | 0.35 | ~9 | 

SMILES | 27-63 Rel Max FI [1] | CC50 [1] [µM] | other results
COc1cccc(C(=O)NC2(C(=O)c3cc(C)cc(C)c3)CCS(=O)(=O)CC2)c1C [Example 62] | 0.04 | ~30 | fold induction at 33 µM [1]: 224
COc1cccc(C(=O)NC(C)(C(=O)c2ccccc2C)C(C)C)c1C (centres unmarked) [Example 63] | 0.68 | 27.2 | 
COc1ccc(C(=O)C2(NC(=O)c3cccc(OC)c3C)CCCCC2)c(OC)n1 [Example 64] | 0.82 | 3.12 | 
COc1cc(C(=O)C2(NC(=O)c3cccc(OC)c3C)CCCC2)cc(OC)c1C [Example 65] | 0.28 | > 20 | 
COc1cc(C(=O)C2(NC(=O)c3cccc(OC)c3C)CCCCC2)cc(OC)c1C [Example 66] | 0.76 | 14.5 | 
COc1cccc(C(=O)NC2(C(=O)c3cc(F)c(F)c(OC)c3)CCCC2)c1C [Example 67] | 0.77 | 6.59 | 
COc1cccc(C(=O)NC2(C(=O)c3cc(F)c(F)c(OC)c3)CCCCC2)c1C [Example 68] | 0.98 | 3.7 | 
COc1cccc(C(=O)NC2(C(=O)c3ccccc3)CCCCC2)c1C [Example 69] | 0.84 | 14.4 | 
COc1ccccc1C(=O)C1(NC(=O)c2cccc(OC)c2C)CCCCCC1 [Example 70] | 0.66 | 3.36 | LC50 (half-maximal ligand concentration for reporter induction) [2]: 3.21 µM; AA_3T3 Rel Max FI [2]: 0.48; Fold Induction Average, AA_3T3 Assay (33 μM) [2]: 1878
COc1cccc(C(=O)NC2(C(=O)c3cc(C)cc(C)c3)CCCCCC2)c1C [Example 71] | 0.88 | 2.97 | LC50 (half-maximal ligand concentration for reporter induction) [2]: 8.18 µM; AA_3T3 Rel Max FI [2]: 0.42; Fold Induction Average, AA_3T3 Assay (33 μM) [2]: 1277
COc1ccccc1C(=O)C(C)(NC(=O)c1cccc(OC)c1C)c1ccc(F)cc1 (centres unmarked) [Example 72] |  |  | Fold Induction Average, 27-63 Assay (33 μM) [1]: 1; Fold Induction Average, AA_3T3 Assay (33 μM) [2]: 3
COc1ccccc1C(=O)C(C)(C)NC(=O)c1cccc(OC)c1C [Example 74] |  |  | Fold Induction Average, 27-63 Assay (33 μM) [1]: 9; Fold Induction Average, AA_3T3 Assay (33 μM) [2]: 4
COc1cccc(C(=O)NC(C)(C)C(=O)c2cc(C)cc(C)c2)c1C [Example 75] | 0.29 | 42 | LC50 (half-maximal ligand concentration for reporter induction) [2]: > 33 µM; AA_3T3 Rel Max FI [2]: 0.02; Fold Induction Average, AA_3T3 Assay (33 μM) [2]: 161
COc1cccc(C(=O)NC(C)(C)C(=O)c2ccccc2)c1C [Example 76] | 0.00 | > 33 | 
CCC(CC)(NC(=O)c1cccc(OC)c1C)C(=O)c1ccc(C)cc1 [Example 77] | 0.00 | > 33 | Fold Induction Average, AA_3T3 Assay (33 μM) [2]: 1
CCC(CC)(NC(=O)c1cccc(OC)c1C)C(=O)c1ccccc1 [Example 78] | 0.41 | 6.54 | LC50 (half-maximal ligand concentration for reporter induction) [2]: > 33 µM; AA_3T3 Rel Max FI [2]: 0.00; Fold Induction Average, AA_3T3 Assay (33 μM) [2]: 14
COc1cccc(C(=O)C(C)(C)NC(=O)c2ccccc2OC)c1 [Example 117] |  |  | Fold Induction Average, 27-63 Assay (33 μM) [1]: 1
CCCCC(=O)C1(NC(=O)c2cccc(OC)c2C)CCCCC1 [Example 120] | 0.65 | 9.05 | 
